Broadly, the EC50 is the concentration at which the effect is half-maximal. As usually defined, the IC50 is the concentration needed to halve the response being measured. Higher therefore signals weaker potency.

Experiment [1] has as its target T1, CD73 (Homo sapiens (Human), UniProt P21589). Put plainly: MDA-MB-231 Cell Based CD73 Activity Assay. To be noted: MDA-MB-231-GFP cells, RPMI medium with 10% human plasma, 200 uM AMP. Here is the method: MDA-MB-231 Cell Based CD73 Activity Assay
MDA-MB-231-GFP cells were seeded in 384-well plates (Greiner 781946) at a density of 10000 cells per well in 50 μL of RPMI medium with 10% HP (human plasma). Cells were plated into assay plate with compounds pre-spotted, for an overnight compound treatment. 50 μL of 400 μM AMP (final concentration 200 μM) using a Bio-tek dispenser. Plates were incubated for 100 mins. […] The samples were run using Rapid fire.

Experiment [2] has as its target T1, CD73. The experiment in a line: CD73 Biochemical IC50 Assay. The settings on record: CD73 0.3 nM, AMP 15 uM, 25 mM Tris pH 7.4, 5 mM MgCl2. Here is the method: CD73 Biochemical IC50 Assay
Compound serial dilutions were pre-spotted into Thermo Nunc assay plate. 50 μL CD73 enzyme buffer (CD73 purchased from R&D system=0.6 nM, 25 mM Tris, pH 7.4, 5 mM MgCl2) was added into the assay plate and incubated for 15 mins. […] The samples were run using Rapid fire.

Several values for one entry are separate records, joined by “and”; a condition that tells them apart may be missing. Equal entries are not always repeated. Some results are limits rather than exact numbers.

T1 sequence (P21589 27-574): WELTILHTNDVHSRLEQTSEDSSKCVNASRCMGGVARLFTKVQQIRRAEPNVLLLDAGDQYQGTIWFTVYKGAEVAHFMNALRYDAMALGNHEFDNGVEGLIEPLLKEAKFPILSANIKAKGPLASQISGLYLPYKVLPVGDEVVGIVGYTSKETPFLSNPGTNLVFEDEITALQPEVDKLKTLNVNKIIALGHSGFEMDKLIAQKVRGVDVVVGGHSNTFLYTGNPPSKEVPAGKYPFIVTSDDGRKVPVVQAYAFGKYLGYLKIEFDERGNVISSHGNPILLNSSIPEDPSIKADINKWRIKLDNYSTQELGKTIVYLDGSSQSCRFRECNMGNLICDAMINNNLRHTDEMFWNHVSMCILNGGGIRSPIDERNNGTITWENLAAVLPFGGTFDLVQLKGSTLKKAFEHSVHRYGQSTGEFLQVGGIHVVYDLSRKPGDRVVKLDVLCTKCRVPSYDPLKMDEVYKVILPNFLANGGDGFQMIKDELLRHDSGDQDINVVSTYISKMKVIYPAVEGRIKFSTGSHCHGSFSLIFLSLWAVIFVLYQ

Consider `COC[C@H]1C[C@@H]1c1cc(-c2c[nH]c(=O)[nH]c2=O)nn2ccnc12` (racemic) [Example 4, 5-(8-((1S,2S)-2-(methoxymethyl)cyclopropyl)imidazo[1,2-b]pyridazin-6-yl)pyrimidine-2,4(1H,3H)-dione and 5-(8-((1R,2R)-2-(methoxymethyl)cyclopropyl)imidazo[1,2-b]pyridazin-6-yl)pyrimidine-2,4(1H,3H)-dione], for which the EC50 in experiment [1] was 191 nM and 285 nM. Also, the IC50 in experiment [2] is 195 nM and 231 nM.
`O=c1[nH]cc(-c2cc(C3CC3)c3nc(-c4ccccn4)cn3n2)c(=O)[nH]1` [Example 103, 5-(8-cyclopropyl-2-(pyridin-2-yl)imidazo[1,2-b]pyridazin-6-yl)pyrimidine-2,4(1H,3H)-dione]: it took 45.1 nM to reach a half-maximal effect in experiment [1] (EC50). The compound further had an IC50 in experiment [2] of 70.8 nM.
For `O=c1[nH]cc(-c2cc([C@H]3C[C@@H]3c3ccc(F)c(C(F)(F)F)c3)c3nccn3n2)c(=O)[nH]1` (racemic) [Example 95, 5-(8-((1S,2S)-2-(4-fluoro-3-(trifluoromethyl)phenyl)cyclopropyl)imidazo[1,2-b]pyridazin-6-yl)pyrimidine-2,4(1H,3H)-dione and 5-(8-((1R,2R)-2-(4-fluoro-3-(trifluoromethyl)phenyl)cyclopropyl)imidazo[1,2-b]pyridazin-6-yl)pyrimidine-2,4(1H,3H)-dione], in that order: 39.1 nM and 49.5 nM.
For `O=c1[nH]cc(-c2cc([C@H]3C[C@@H]3c3cc(F)ccc3F)c3nccn3n2)c(=O)[nH]1` (racemic) [Example 65, 5-(8-((1S,2S)-2-(2,5-difluorophenyl)cyclopropyl)imidazo[1,2-b]pyridazin-6-yl)pyrimidine-2,4(1H,3H)-dione and 5-(8-((1R,2R)-2-(2,5-difluorophenyl)cyclopropyl)imidazo[1,2-b]pyridazin-6-yl)pyrimidine-2,4(1H,3H)-dione], in that order: 6.71 nM and 13.2 nM.
For `O=c1[nH]cc(-c2cc([C@H]3C[C@@H]3Cc3ccccc3)c3nccn3n2)c(=O)[nH]1` (racemic) [Example 105, 5-(8-((1S,2R)-2-benzylcyclopropyl)imidazo[1,2-b]pyridazin-6-yl)pyrimidine-2,4(1H,3H)-dione and 5-(8-((1R,2S)-2-benzylcyclopropyl)imidazo[1,2-b]pyridazin-6-yl)pyrimidine-2,4(1H,3H)-dione], in that order: 38.5 nM and 285 nM.
In the case of `O=c1[nH]cc(-c2cc(OC3CC3)c3nccn3n2)c(=O)[nH]1` [Example 24, 5-(8-cyclopropoxyimidazo[1,2-b]pyridazin-6-yl)pyrimidine-2,4(1H,3H)-dione], the midpoint of the response in experiment [1], the EC50, lay at 1230 nM. Besides, in experiment [2], it took 1260 nM to reach half-maximal inhibition (IC50).
For `CCOC(=O)c1cn2nc(-c3c[nH]c(=O)[nH]c3=O)cc(C3CC3)c2n1` [Example 3, Ethyl 8-cyclopropyl-6-(2,4-dioxo-1H-pyrimidin-5-yl)imidazo[1,2-b]pyridazine-2-carboxylate], in that order: 195 nM and 235 nM.
For `N#Cc1cnc2c(C3CCC(F)(F)CC3)cc(-c3c[nH]c(=O)[nH]c3=O)nn12` [Example 56, 8-(4,4-difluorocyclohexyl)-6-(2,4-dioxo-1,2,3,4-tetrahydropyrimidin-5-yl)imidazo[1,2-b]pyridazine-3-carbonitrile], in that order: 4460 nM and greater than 2500 nM.
Consider `Cc1cn2nc(-c3c[nH]c(=O)[nH]c3=O)cc(C3CC3)c2n1` [Example 1, 5-(8-cyclopropyl-2-methyl-imidazo[1,2-b]pyridazin-6-yl)-1H-pyrimidine-2,4-dione], for which a half-maximal effect in experiment [1] (EC50) was put at 413 nM. The IC50 in experiment [2] amounted to 507 nM.
For “5-(8-((1S,2S)-2-phenylcyclopropyl)imidazo[1,2-b]pyridazin-6-yl)pyrimidine-2,4-(1H,3H)-dione and 5-(8-((1R,2R)-2-phenylcyclopropyl)imidazo[1,2-b]pyridazin-6-yl)pyrimidine-2,4-(1H,3H)-dione [Example 104]”, in that order: 23.2 nM and 196 nM.
For `O=c1[nH]cc(-c2cc(C3(C(F)(F)F)CC3)c3nccn3n2)c(=O)[nH]1` [Example 18, 5-[8-[1-(trifluoromethyl)cyclopropyl]imidazo[1,2-b]pyridazin-6-yl]-1H-pyrimidine-2,4-dione], in that order: 20400 nM and greater than 2500 nM.
Turning to “5-(8-((1S,2S)-2-(2,3,5-trifluorophenyl)cyclopropyl)imidazo[1,2-b]pyridazin-6-yl)pyrimidine-2,4(1H,3H)-dione and 5-(8-((1R,2R)-2-(2,3,5-trifluorophenyl)cyclopropyl)imidazo[1,2-b]pyridazin-6-yl)pyrimidine-2,4(1H,3H)-dione [Example 61]”, the EC50 in experiment [1] came out at 16.6 nM. This compound also displayed an IC50 in experiment [2] of 12.1 nM.
For the compound `O=c1[nH]cc(-c2cc([C@H]3C[C@@H]3C3CC3)c3nccn3n2)c(=O)[nH]1` (racemic) [Example 8, 5-(8-((1R,2S)-[1,1′-bi(cyclopropan)]-2-yl)imidazo[1,2-b]pyridazin-6-yl)pyrimidine-2,4(1H,3H)-dione and 5-(8-((1S,2R)-[1,1′-bi(cyclopropan)]-2-yl)imidazo[1,2-b]pyridazin-6-yl)pyrimidine-2,4(1H,3H)-dione], the EC50 in experiment [1] was 36.1 nM and 47.2 nM. Also, in experiment [2], the IC50 is 29 nM and 45.8 nM.
`Cc1cnc2c(C3CCC(F)(F)CC3)cc(-c3c[nH]c(=O)[nH]c3=O)nn12` [Example 57, 5-(8-(4,4-difluorocyclohexyl)-3-methylimidazo[1,2-b]pyridazin-6-yl)pyrimidine-2,4(1H,3H)-dione]: the EC50 in experiment [1] turned out to be 3300 nM. In experiment [2], this compound yielded an IC50 greater than 2500 nM.
For `O=c1[nH]cc(-c2cc(N3CC(c4ccccc4)C3)c3nccn3n2)c(=O)[nH]1` [Example 59, 5-(8-(3-phenylazetidin-1-yl)imidazo[1,2-b]pyridazin-6-yl)pyrimidine-2,4(1H,3H)-dione], the response in experiment [1] was half-maximal at 71.7 nM (EC50). The compound further registered an IC50 in experiment [2] of 65 nM.
For `O=c1[nH]cc(-c2cc([C@H]3C[C@@H]3c3ccc(F)cc3F)c3ncc(F)n3n2)c(=O)[nH]1` [Example 88, 5-[8-[(1S,2S)-2-(2,4-difluorophenyl)cyclopropyl]-3-fluoro-imidazo[1,2-b]pyridazin-6-yl]-1H-pyrimidine-2,4-dione], in that order: 2.93 nM and 9.16 nM.
Turning to `O=c1[nH]cc(-c2cc(CS(=O)(=O)c3ccccc3)c3nc(CS(=O)(=O)c4ccccc4)cn3n2)c(=O)[nH]1` [Example 21, 5-[2,8-bis(benzenesulfonylmethyl)imidazo[1,2-b]pyridazin-6-yl]-1H-pyrimidine-2,4-dione], the EC50 in experiment [1] is greater than 25000 nM. For the same compound, the IC50 in experiment [2] is greater than 2500 nM.
Compound `O=c1[nH]cc(-c2cc([C@H]3C[C@@H]3c3ccc(F)c(Cl)c3)c3nccn3n2)c(=O)[nH]1` (racemic) [Example 99, 5-(8-((1S,2S)-2-(3-chloro-4-fluorophenyl)cyclopropyl)imidazo[1,2-b]pyridazin-6-yl)pyrimidine-2,4(1H,3H)-dione and 5-(8-((1R,2R)-2-(3-chloro-4-fluorophenyl)cyclopropyl)imidazo[1,2-b]pyridazin-6-yl)pyrimidine-2,4(1H,3H)-dione] returned an EC50 in experiment [1] of 6.05 nM. Moreover, 19.3 nM corresponded to half-maximal inhibition in experiment [2] (IC50).
Compound `N#Cc1ccc(C[C@H]2C[C@@H]2c2cc(-c3c[nH]c(=O)[nH]c3=O)nn3ccnc23)cc1` (racemic) [Example 111, 4-(41R,2S)-2-(6-(2,4-dioxo-1,2,3,4-tetrahydropyrimidin-5-yl)imidazo[1,2-b]pyridazin-8-yl)cyclopropyl)methyl)benzonitrile and 4-(((1S,2R)-2-(6-(2,4-dioxo-1,2,3,4-tetrahydropyrimidin-5-yl)imidazo[1,2-b]pyridazin-8-yl)cyclopropyl)methyl)benzonitrile] gave an EC50 in experiment [1] of 71.5 nM. Further, 205 nM corresponded to half-maximal inhibition in experiment [2] (IC50).
Consider `O=c1[nH]cc(-c2ccc3nccn3n2)c(=O)[nH]1` [Example 23, 5-(imidazo[1,2-b]pyridazin-6-yl)pyrimidine-2,4(1H,3H)-dione], for which, in experiment [1], the EC50 was greater than 25000 nM. The compound further came in with an IC50 in experiment [2] greater than 2500 nM.
For the compound `CC(C)c1cc(-c2c[nH]c(=O)[nH]c2=O)nn2cnnc12` [Example 16, 5-(8-isopropyl-[1,2,4]triazolo[4,3-b]pyridazin-6-yl)pyrimidine-2,4(1H,3H)-dione], in experiment [1], it took 333 nM to reach a half-maximal effect (EC50). The same compound showed an IC50 in experiment [2] of 362 nM.
Regarding `Cc1nc2c(C3CCC(F)(F)CC3)cc(-c3c[nH]c(=O)[nH]c3=O)nn2n1` [Example 55, 5-(8-(4,4-difluorocyclohexyl)-2-methyl-[1,2,4]triazolo[1,5-b]pyridazin-6-yl)pyrimidine-2,4(1H,3H)-dione], in experiment [1], the EC50 came out at 872 nM. The same compound yielded an IC50 in experiment [2] greater than 2500 nM.
For `O=c1[nH]cc(-c2cc(COCc3ccccc3)c3nccn3n2)c(=O)[nH]1` [Example 58, 5-(8-((benzyloxy)methyl)imidazo[1,2-b]pyridazin-6-yl)pyrimidine-2,4(1H,3H)-dione], in that order: 704 nM and 548 nM.
The compound `O=c1[nH]cc(-c2cc(N3CCOCC3)c3nccn3n2)c(=O)[nH]1` [Example 10, 5-(8-morpholinoimidazo[1,2-b]pyridazin-6-yl)-1H-pyrimidine-2,4-dione] returned an EC50 in experiment [1] of 473 nM. Also, the IC50 in experiment [2] was determined as 980 nM.
For `O=c1[nH]cc(-c2cc(C3(C(F)(F)F)CC3)c3nc(C4(C(F)(F)F)CC4)cn3n2)c(=O)[nH]1` [Example 19, 5-[2,8-bis[1-(trifluoromethyl)cyclopropyl]imidazo[1,2-b]pyridazin-6-yl]-1H-pyrimidine-2,4-dione], in that order: greater than 25000 nM and greater than 2500 nM.
